Laboratory results reported in article PMC6764326, “The Trials and Tribulations of Structure Assisted Design of KCa Channel Activators” (Frontiers in Pharmacology, 2019).

Columns and labels:
KCa2.2 = biological target: T1, KCa2.2 (Homo sapiens, UniProt P0DP23+Q9H2S1); assay: QPatch automated whole-cell patch-clamp screen, 10 µM activator normalized to 10 µM SKA-31; format: cell-based; conditions: 250 nM free internal Ca2+, HEK cells stably expressing channel
T1 construct: expressed in transfected cells
Procedure: (§1) All experiments were performed in either the inside-out or the whole-cell configuration of the patch-clamp technique on either transiently transfected CHO cells or Human Embryonic Kidney (HEK) cell lines stably expressing hKCa3.1 or hKCa2.2 ([Sankaranarayanan et al., 2009]). All cells were cultured in Dulbecco’s modified Eagle’s medium supplemented with 10% fetal calf serum. Wild-type (WT) and mutant hKCa3.1 channel constructs were transfected using FuGENE 6 transfection reagent (Promega, Madison, WI) in OptiMEM reduced-serum medium (Life Technologies, Benicia, CA) for manual patch-clamp experiments or via electroporation (Nucleofector 2b and Lonza Amaxa Cell Line Nucleofector Kit T) according to the manufacturer’s instructions for automated electrophysiology.
(§2) The procedure for performing automated whole-cell KCa channel recordings on a QPatch-16 automated electrophysiology platform (Sophion Biosciences) was previously described in detail by our laboratory ([Jenkins et al., 2013]). For the current study we used the solutions described above with disposable 16-channel planar patch chip plates (QPlates; patch hole diameter […], resistance 2.00–0.02MΩ, Sophion Biosciences, Woburn, MA). Cell positioning and sealing parameters were set as follows: positioning pressure -70 mbar, resistance increase for success 750%, minimum seal resistance 0.1 GΩ, holding potential -0 mV, holding pressure -20 mbar. To avoid rejection of cells with large KCa3.1 currents, the minimum seal resistance for whole-cell requirement was lowered to 0.001 GΩ. Access was obtained with the following sequence: 1) suction pulses in 29 mbar increments from -250 mbar to -453 mbar; 2) a suction ramp of an amplitude of -450 mbar; 3) -400 mV voltage zaps of 1 ms duration. Following establishment of the whole-cell configuration, cells were held at -80 mV and KCa currents elicited by a voltage protocol that held at -80 mV for 20 ms, stepped to -120 mV for 20 ms, ramped from -120 to + 40 mV in 200 ms, and then stepped back to -120 mV for 20 ms. This pulse protocol was applied every 10 s. KCa activator dilutions were prepared freshly (within 5 min of the initiation of the QPatch) with Ringer’s solution from 10 mM stock solutions in dry DMSO. Final DMSO concentrations never exceeded 1%. Glass vial inserts (to avoid adsorption) were filled with 400 µL of compound solution and placed into the insert base plate for use in the QPatch assay. Exemplary QPatch raw current traces and plots of slope conductance versus time are shown in Supplementary Figure 3 . For each compound we typically used 12 consecutive liquid periods Break-in, 3 saline additions to stabilize the current, 2 additions of test compound at 10 µM, 2 saline washes, 2 additions of SKA-31 at 10 µM, followed by 2 more saline washes. In each liquid period 10 pulse protocols were run.
(§3) The newly synthesized compounds were tested by automated whole-cell patch-clamp for their ability to activate KCa2.2 and KCa3.1 channels stably expressed in HEK cells. […] A promising compound would ideally do both. […] We started by comparing the effect of the SKA-74 derivatives to SKA-31 ( Figure 4A ).
(§4) Figure 4 Whole-cell KCa3.1 and KCa2.2 responses elicited by 10 µM of activator and normalized to 10 µM of the mixed activator SKA-31. Experiments were performed by automated electrophysiology with 250 nM of free internal Ca^2+. In each experiment the new activator was tested first, washed out with 2 saline additions, and then SKA-31 was applied as positive control for normalization of the response. (A) Screening of SKA-74 derivatives. (B) Screening of SKA-75 and SKA-76 derivatives. The bar graphs show means ± SD of the slope conductance measured between −85 and −65 mV (n = 2–7 cells). Chemical structures are shown below the bar graphs.
(§5) Figure 5 Whole-cell KCa3.1 and KCa2.2 responses elicited by 10 µM of activator and normalized to 10 µM of the mixed activator SKA-31. […]

KCa3.1 = biological target: T2, KCa3.1 (Homo sapiens, UniProt O15554+P0DP23); assay: as above; format: cell-based; conditions: for Whole-cell KCa3.1 response elicited by 10 µM of activator normalized to 10 µM SKA-31 (described in words): 250 nM free internal Ca2+, HEK cells stably expressing channel; for Selectivity between KCa3.1 and KCa2.2 in the 10 µM screen: KCa3.1 versus KCa2.2, 250 nM free Ca2+
T2 construct: expressed in transfected cells
Procedure: as §1, §2, §3, §4, §5

Compound	Whole-cell KCa2.2 response elicited by 10 µM of activator normalized to 10 µM SKA-31 (described in words) (KCa2.2)	Whole-cell KCa3.1 response elicited by 10 µM of activator normalized to 10 µM SKA-31 (described in words) (KCa3.1)	Selectivity between KCa3.1 and KCa2.2 in the 10 µM screen (KCa3.1)	melting point [°C]
2-Aminonaphtho[1,2-d]oxazole-5-sulfonic acid [SKA-128]	drastically reduced potency	drastically reduced potency		
5,6-Dinitronaphtho[1,2-d]thiazol-2-amine [SKA-218]			preserved the selectivity for KCa3.1	
Cc1nc2c(cc(Cl)c3ccccc32)s1 [SKA-130, 5-Chloro-2-methylnaphtho[1,2-d]thiazole]	decreased activity		preserved selectivity for KCa3.1	
Cc1nc2c(cc(Br)c3ccccc32)s1 [SKA-132, 5-Bromo-2-methylnaphtho[1,2-d]thiazole]	decreased activity		preserved selectivity for KCa3.1	
Cc1nc2c(cc(Br)c3ccccc32)o1 [SKA-133, 5-Bromo-2-methylnaphtho[1,2-d]oxazole]	decreased activity		preserved selectivity for KCa3.1	101 to 102
Nc1nc2cc3ccccc3cc2o1 [SKA-134, Naphtho[2,3-d]oxazol-2-amine]				247 to 248
c1ccc2c(c1)ccc1sc(NC3CCCCC3)nc12 [SKA-165, N-Cyclohexylnaphtho[1,2-d]thiazol-2-amine]	completely eliminated activity	completely eliminated activity		
Cc1nc2c(ccc3c(N)cccc32)s1 [SKA-172, 2-Methylnaphtho[1,2-d]thiazol-6-amine]			preserved the selectivity for KCa3.1	
Cc1nc2c(ccc3cccc(N)c32)s1 [SKA-178, 2-Methylnaphtho[1,2-d]thiazol-9-amine]			preserved the selectivity for KCa3.1	87 to 88
Cc1ccc(-c2csc(N)n2)c2ccccc12 [SKA-190, 4-(4-Methylnaphthalen-1-yl)thiazol-2-amine]	somewhat increased KCa channel activating potency	somewhat increased KCa channel activating potency		
CNc1nc2c(cc(C)c3ccccc32)s1 [SKA-204, N,5-Dimethylnaphtho[1,2-d]thiazol-2-amine]				172 to 173
Cc1nc2c(ccc3cccc([N+](=O)[O-])c32)s1 [SKA-216, 2-Methyl-9-nitronaphtho[1,2-d]thiazole]			preserved the selectivity for KCa3.1	151 to 152
Nc1nc(-c2ccc3ccccc3c2)c(Br)s1 [SKA-220, 5-Bromo-4-(naphthalen-2-yl)thiazol-2-amine]	somewhat increased KCa channel activating potency	somewhat increased KCa channel activating potency		
Nc1nc(-c2ccc(-c3ccccc3)cc2)cs1 [SKA-232, 4-Biphenyl-4-yl-thiazol-2-ylamine]	completely devoid of activity	completely devoid of activity		
Nc1ncc(-c2ccc(-c3ccc(-c4cnc(N)s4)cc3)cc2)s1 [SKA-255, Bis-4,4’-(2-amino-4-thiazolyl)biphenyl]	completely devoid of activity	completely devoid of activity		
c1ccc(-c2csc(Nc3ccccn3)n2)cc1 [SKA-265, 4-Phenyl-N-(pyridin-2-yl)thiazol-2-amine]	completely devoid of activity	completely devoid of activity		
CCc1cc2sc(N)nc2c2ccccc12 [SKA-306, 5-Ethylnaphtho[1,2-d]thiazol-2-amine]		roughly as potent	as KCa3.1 selective as SKA-111	144 to 145
CCCc1cc2sc(N)nc2c2ccccc12 [SKA-307, 5-Propylnaphtho[1,2-d]thiazol-2-amine]		roughly as potent	as KCa3.1 selective as SKA-111	147 to 150
CC(C)c1cc2sc(N)nc2c2ccccc12 [SKA-308, 5-Isopropylnaphtho[1,2-d]thiazol-2-amine]		roughly as potent	as KCa3.1 selective as SKA-111	179 to 181
Nc1nc2c(cc(-c3ccccc3)c3ccccc32)s1 [SKA-326, 5-Phenylnaphtho[1,2-d]thiazol-2-amine]				177 to 178
CN(C)c1cc2sc(N)nc2c2ccccc12 [SKA-331, N^5,N^5-Dimethylnaphtho[1,2-d]thiazole-2,5-diamine]		roughly as potent	as KCa3.1 selective as SKA-111	171 to 174
Nc1nc2c(cc(-n3ccnc3)c3ccccc32)s1 [SKA-334, 5-(1H-Imidazol-1-yl)naphtho[1,2-d]thiazol-2-amine]				272 to 275
Nc1nc2c(cc(-n3cccn3)c3ccccc32)s1 [SKA-335, 5-(1H-Pyrazol-1-yl)naphtho[1,2-d]thiazol-2-amine]				226 to 227
Nc1nc2c(cc(-n3ccnn3)c3ccccc32)s1 [SKA-339, 5-(1H-1,2,3-Triazol-1-yl)naphtho[1,2-d]thiazol-2-amine]				208
Cc1ccn(-c2cc3sc(N)nc3c3ccccc23)n1 [SKA-340, 5-(3-Methyl-1H-pyrazol-1-yl)naphtho[1,2-d]thiazol-2-amine]				189 to 190
Nc1nc2c(cc(-n3ccc(C(F)(F)F)n3)c3ccccc32)s1 [SKA-341, 5-(3-(Trifluoromethyl)-1H-pyrazol-1-yl)naphtho[1,2-d]thiazol-2-amine]				206 to 207
Cc1cn(-c2cc3sc(N)nc3c3ccccc23)cn1 [SKA-343, 5-(4-Methyl-1H-imidazol-1-yl)naphtho[1,2-d]thiazol-2-amine]				269 to 271
Cc1nccn1-c1cc2sc(N)nc2c2ccccc12 [SKA-344, 5-(2-Methyl-1H-imidazol-1-yl)naphtho[1,2-d]thiazol-2-amine]				264 to 265
Cc1cnn(-c2cc3sc(N)nc3c3ccccc23)c1 [SKA-345, 5-(4-Methyl-1H-pyrazol-1-yl)naphtho[1,2-d]thiazol-2-amine]				249
Nc1nc2c(cc(-n3cncn3)c3ccccc32)s1 [SKA-347, 5-(1H-1,2,4-Triazol-1-yl)naphtho[1,2-d]thiazol-2-amine]				273
